Drawing on ChEMBL document CHEMBL3507680, “University of Dundee, Gates Library screen for HepG2 cell viability”, this text covers cytotoxicity for 92 molecules.

A short description of this data set: Human HepG2 cell viability assay in 384 well format. It counts as toxicity, cell-based. To be noted: HepG2 cells, read-out: Inhibition. Also noted: dose 125 nL, time 70.5 hour; cytotoxicity at 70.5 h: concentration not given beside the values.

On to `COCC1c2nnn(CC3CC3)c2CCN1C(=O)c1ccnnc1` (configuration not stated), for which the cytotoxicity at 70.5 h is -6.63%.

Regarding `O=C(NCC1CC1)[C@H]1CC[C@@H]2[C@@H](CCN2Cc2ccoc2)O1`, the cytotoxicity at 70.5 h was -12.5%.

`CC(=O)N1CCC2(CC1)CC[C@@]1(C(=O)N(C)C)CN(S(C)(=O)=O)C[C@@H]21`: the cytotoxicity at 70.5 h worked out at 27.7%.

In the case of `O=C([C@H]1CCCO1)N1CCc2ncnc(NC3CC3)c2CC1`, the cytotoxicity at 70.5 h was -6.76%.

As to `Cc1ccc(CN2CCC3(C2)C(=O)N(CC(C)C)c2ccccc23)s1` (configuration not stated), the cytotoxicity at 70.5 h was -7.14%.

For the molecule `CC(=O)NCC(=O)N1C[C@H](OCc2cccnc2)[C@H]2COC[C@H]21`, the cytotoxicity at 70.5 h turned out to be 3.33%.

`O=C(c1ccnnc1)N1C[C@@H](OCC2CCCC2)[C@H]2OCCC[C@H]21`: the cytotoxicity at 70.5 h is -3.04%.

Take `O=C(NCc1cccc(F)c1)N1CCC2(CC(=O)N(c3ccsc3)C2)C1` (configuration not stated): the cytotoxicity at 70.5 h is 4.74%.

Turning to `CO[C@H]1CCN(c2ccc(C)nn2)[C@H]1Cc1cnn(C)c1`, the cytotoxicity at 70.5 h is 5.26%.

`Cc1nc(N(C)C)nc2c1COCC21CCN(C(=O)NC(C)C)C1` (configuration not stated): the cytotoxicity at 70.5 h came out at 4.31%.

As for `O=C(Cc1ccccc1)N1CCC2(CC(=O)N(c3ccsc3)C2)C1` (configuration not stated), the cytotoxicity at 70.5 h was -0.17%.

For the molecule `CNC(=O)[C@H]1CCS(=O)(=O)[C@@H]2CN(Cc3ccc(OC)cc3)C[C@H]12`, the cytotoxicity at 70.5 h is -4.04%.

Consider `COCc1cncc2c1CCN(C(=O)c1ccc(C)o1)C2`, for which the cytotoxicity at 70.5 h came out at 4.32%.

As to `N#Cc1cccc(C(=O)N2CCc3ncc(Cn4cccn4)n3CC2)c1`, the cytotoxicity at 70.5 h worked out at 8.26%.

For `COCC1c2c(cnn2CC2CC2)CCN1Cc1ccc(OC)cc1` (configuration not stated), the cytotoxicity at 70.5 h stood at 49.3%.

`CNC(=O)[C@H]1C[C@@H]2CN(C(=O)c3cscn3)C[C@@H]2N1S(C)(=O)=O`: the cytotoxicity at 70.5 h is -1.08%.

For the molecule `c1ccc(CN2CC[C@H]3CO[C@H](CNc4ncccn4)[C@H]3C2)nc1`, the cytotoxicity at 70.5 h was -0.901%.

Take `CCS(=O)(=O)N1CCO[C@H]2[C@H](OCC3CCCC3)CC[C@@H]21`: the cytotoxicity at 70.5 h was -13.9%.

With `O=S(=O)(C1CC1)N1CCO[C@H]2[C@H](OCC3CCCC3)CC[C@@H]21`, the cytotoxicity at 70.5 h amounted to 1.94%.

Turning to `CCS(=O)(=O)N1Cc2nccn2CC(COc2cccnc2)C1` (configuration not stated), the cytotoxicity at 70.5 h was -2.17%.

Consider `COc1ncnc2c1CCN(c1cc(C(F)(F)F)ncn1)CC2`, for which the cytotoxicity at 70.5 h was -6.15%.

As to `CN1CC2(COCCN(C(=O)c3ccco3)C2)OCC1=O` (configuration not stated), the cytotoxicity at 70.5 h was determined as 6.17%.

With `O=C(c1ccco1)N1CCOCC2(C1)CN(c1ccccc1)C(=O)CO2` (configuration not stated), the cytotoxicity at 70.5 h is -5.76%.

Consider `Cn1cc(CN2CCCn3cnc(CN4CCCC4=O)c3C2)cn1`, for which the cytotoxicity at 70.5 h is -17.3%.

Take `CCC1=N[C@@]2(CC[C@@H]3CN(C(=O)NCC(C)C)C[C@@H]32)C(=O)N1CC(C)C`: the cytotoxicity at 70.5 h was -9.11%.

Turning to `Cn1cnc2c1C(COCc1cccnc1)N(Cc1ccccn1)CC2` (configuration not stated), the cytotoxicity at 70.5 h was -3.62%.

In the case of `CN1CCCC1(CCCc1cccnc1)C(=O)NCc1nccn1C` (configuration not stated), the cytotoxicity at 70.5 h was -1.26%.

With `O=C(C1CCOCC1)N1CCCC1c1cncc(CN2CCCC2)n1` (configuration not stated), the cytotoxicity at 70.5 h is -0.0308%.

`COCC(=O)N1CCN(C)CC(Cc2cc(N(C)C)ncn2)C1` (configuration not stated): the cytotoxicity at 70.5 h was -3.09%.

Consider `Cc1c[nH]c(C2CN(Cc3ccccc3C(=O)O)CCO2)n1` (configuration not stated), for which the cytotoxicity at 70.5 h was -1.83%.

Take `CC(C)=CCCC1(C)C=Cc2c(cc(C)n(CC(=O)O)c2=O)O1` (configuration not stated): the cytotoxicity at 70.5 h was -3.4%.

As to `Cc1ccc(CC2COCCN(S(=O)(=O)c3ccccc3)C2)nc1` (configuration not stated), the cytotoxicity at 70.5 h was -0.967%.

Turning to `CCN(CC)S(=O)(=O)N1CCC(c2c(C(N)=O)sc3ccccc23)C1` (configuration not stated), the cytotoxicity at 70.5 h was -3.04%.

In the case of `CC(C)c1cn(CC(=O)NC2CC(=O)N(CCc3ccccc3)C2)nn1` (configuration not stated), the cytotoxicity at 70.5 h was -3.95%.

With `CNC(=O)c1ccc(-c2ccc(CNS(=O)(=O)N(C)C)cc2)nc1C`, the cytotoxicity at 70.5 h is -0.408%.

Take `Cc1cccc(CNC(=O)CC2CCN(S(C)(=O)=O)CC2)n1`: the cytotoxicity at 70.5 h is -4.65%.

For the molecule `O=C(C1CCOCC1)N1C[C@H]2C[C@H](OCc3ccccc3)C[C@H]2C1`, the cytotoxicity at 70.5 h was -3.41%.

Turning to `O=C(CC1CCN(c2cccnn2)CC1)NC1CCOCC1`, the cytotoxicity at 70.5 h is -17%.

On to `CNC(=O)c1ccc(-c2ccc(CNC(=O)COC)cc2)nc1C`, for which the cytotoxicity at 70.5 h is -10.8%.

For `Cc1cc(Cc2ccccc2F)cc(C2CCCNC2)n1` (configuration not stated), the cytotoxicity at 70.5 h was -1.65%.

Consider `CC(=O)N1CCCC1c1nccnc1NCc1cccnc1` (configuration not stated), for which the cytotoxicity at 70.5 h is -8.19%.

As to `COCC(=O)N1CCCC1c1nc(C)c2c(n1)N(CC(C)C)C(=O)CC2` (configuration not stated), the cytotoxicity at 70.5 h is -6.03%.

With `CC(=O)N1CCC(c2cnc(NC3CCOCC3)cn2)CC1`, the cytotoxicity at 70.5 h is -6.84%.

For the molecule `O=C(O)c1ccccc1-c1ccc(CN2CCC(CO)C2)cc1` (configuration not stated), the cytotoxicity at 70.5 h was -6.69%.

Take `CC(C)C[C@H](N)COc1cccc(F)c1Oc1cccc(Cl)c1`: the cytotoxicity at 70.5 h was found to be 26.3%.

Consider `Cc1cnc(CCNC(=O)C2CN(C(=O)Cc3ccc(F)cc3)C2)s1`, for which the cytotoxicity at 70.5 h was found to be 15.9%.

Consider `CCCN1CCCCCC1Cc1c(C(=O)NC)sc2ccccc12` (configuration not stated), for which the cytotoxicity at 70.5 h worked out at 27.8%.

In the case of `Cn1cnc2ccc(NC(=O)CC3CCN(C4CCCCC4)CC3)cc21`, the cytotoxicity at 70.5 h was -4.48%.

With `Cc1ccnc(C2CCN(c3ccnc(C)n3)C2)n1` (configuration not stated), the cytotoxicity at 70.5 h is -12.3%.

For `Cc1nn(C)cc1-c1cncn1CCN(C)C1CCCC1`, the cytotoxicity at 70.5 h is -5%.

On to `Cc1nc(Nc2nnc(C)s2)cc(C2CCCN2)n1` (configuration not stated), for which the cytotoxicity at 70.5 h was -6.91%.

On to `CN(Cc1ccco1)Cc1cncc2c1CCN(c1ncccn1)C2`, for which the cytotoxicity at 70.5 h came to 7.69%.

For `CC(C)CN1C(=O)C2(CCN(Cc3nccs3)C2)c2ccccc21` (configuration not stated), the cytotoxicity at 70.5 h was -1.93%.

As to `COCCNC(=O)[C@H]1C[C@@H]2CCN(c3nncs3)C[C@H]2O1`, the cytotoxicity at 70.5 h was -4.17%.

With `CCCS(=O)(=O)N1CCO[C@H]2[C@H](OCc3ccccn3)CC[C@@H]21`, the cytotoxicity at 70.5 h is -1.48%.

In the case of `c1cnc(NC[C@@H]2CCC[C@@H]3CN(Cc4cccnc4)C[C@@H]32)nc1`, the cytotoxicity at 70.5 h was -2.09%.

For the molecule `CN(C)C(=O)[C@@H]1CCO[C@@H]2CCN(CCc3ccccc3)C[C@@H]21`, the cytotoxicity at 70.5 h was found to be 1.43%.

On to `Cc1ccc(N2CC[C@H]3OCC[C@@]3(C(=O)NC(C)C)C2)nn1`, for which the cytotoxicity at 70.5 h was 1.98%.

In the case of `COCC1Cn2nnc(-c3cnn(C)c3)c2CN1Cc1ccc(C)s1` (configuration not stated), the cytotoxicity at 70.5 h is 4.51%.

Turning to `CCN1CCn2c(C)cnc2C12CCN(C(=O)c1ccc(Cl)cc1)CC2`, the cytotoxicity at 70.5 h was -11.3%.

Consider `O=C(c1ccc(F)cc1)N1C[C@@H]2OCCN(c3ncccn3)[C@@H]2C1`, for which the cytotoxicity at 70.5 h was found to be 4.02%.

Take `CNC(=O)[C@@H]1C[C@H]2CN(C(=O)c3ccco3)C[C@H]2N1C`: the cytotoxicity at 70.5 h worked out at 2.59%.

With `CC(C)CCN1CCC2(CC1)CN(C(=O)c1cnccn1)CCO2`, the cytotoxicity at 70.5 h was found to be 1.9%.

With `O=S(=O)(C1CC1)N1CCO[C@H]2[C@H](OCCN3CCCC3)CC[C@@H]21`, the cytotoxicity at 70.5 h came to 23.9%.

For the molecule `Cc1nc(CN2C(=O)CCC23CCN(c2ncccn2)CC3)cs1`, the cytotoxicity at 70.5 h was -8.07%.

For the molecule `CCS(=O)(=O)N1CCO[C@H]2[C@H](OCCCn3cccn3)CC[C@@H]21`, the cytotoxicity at 70.5 h was -9.45%.

In the case of `CN(C)CCO[C@@H]1CC[C@H]2[C@H]1OCCN2C(=O)CCc1ccccc1`, the cytotoxicity at 70.5 h was -12.8%.

For the molecule `O=C(NCc1ccco1)[C@H]1C[C@H]2OCC[C@H]2N(C(=O)c2ccncc2)C1`, the cytotoxicity at 70.5 h was -12.4%.

Regarding `CCOCC1CN(C(=O)CS(C)(=O)=O)Cc2cnn(C)c21` (configuration not stated), the cytotoxicity at 70.5 h was -14.4%.

`Fc1cnc(N2CCO[C@H]3CN(CC4CCCC4)C[C@H]32)nc1`: the cytotoxicity at 70.5 h was -13%.

`O=S(=O)(c1cccs1)N1CCCn2cnc(CN3CCCC3)c2C1`: the cytotoxicity at 70.5 h was 23.3%.

Consider `O=C(NC1CC1)[C@H]1C[C@H]2OCC[C@H]2N(CC2CCOCC2)C1`, for which the cytotoxicity at 70.5 h was 22.7%.

As for `CC(=O)N1CC(=O)N(c2cnn(C)c2)CC12CCN(Cc1ccsc1)C2` (configuration not stated), the cytotoxicity at 70.5 h amounted to 21.7%.

As for `COCCn1cc2c(n1)C(CNCc1ccco1)OCC2` (configuration not stated), the cytotoxicity at 70.5 h worked out at 22.8%.

On to `CC(C)N(C)Cc1cnc2n1CCN(CCc1ccccc1)C2`, for which the cytotoxicity at 70.5 h came out at 4.09%.

In the case of `COCCn1cc2c(n1)C(CNCc1ccc(F)cc1)OCC2` (configuration not stated), the cytotoxicity at 70.5 h was determined as 0.574%.

With `Cn1cc(CN2CCC(F)(F)C3(CCN(c4cnccn4)C3)C2)cn1` (configuration not stated), the cytotoxicity at 70.5 h was -0.766%.

`Cc1ccc(CN2CCC(F)(F)C3(CCN(c4cnccn4)C3)C2)o1` (configuration not stated): the cytotoxicity at 70.5 h was -1.47%.

On to `CN1CC(=O)N(c2cccnc2)CC12CCN(C(=O)C1CCCCC1)C2` (configuration not stated), for which the cytotoxicity at 70.5 h was determined as 36.1%.

On to `Cc1nc(CN2CCC3(CCCN(Cc4cnn(C)c4)C3)C2=O)cs1` (configuration not stated), for which the cytotoxicity at 70.5 h was 0.731%.

Take `COCC1c2c(cnn2CC2CC2)CCN1Cc1nccs1` (configuration not stated): the cytotoxicity at 70.5 h was -4.64%.

As for `O=C(NC1CCC1)[C@@H]1C[C@@H]2CCN(Cc3ccncc3)C[C@H]2O1`, the cytotoxicity at 70.5 h was -4.89%.

For the molecule `O=C(NCC1CCOCC1)[C@H]1C[C@@H]2CCN(Cc3ccncc3)C[C@@H]2O1`, the cytotoxicity at 70.5 h was -1.08%.

For `Cc1ccc(CN2CCc3ncnc(-c4cccnc4)c3CC2)o1`, the cytotoxicity at 70.5 h is -5.88%.

Regarding `Fc1cnc(N2CCn3cc(CNc4ccccn4)nc3C2)nc1`, the cytotoxicity at 70.5 h was -17.4%.

As to `COCC(=O)N1CCC2(CC1)COCCN2CCN(C)C`, the cytotoxicity at 70.5 h is -19.5%.

In the case of `CN(Cc1cncnc1)Cc1cn2c(n1)CN(C1CCOC1)CC2` (configuration not stated), the cytotoxicity at 70.5 h was -13.2%.

In the case of `CC(=O)N1CCC2(CC1)COCCN2CCN(C)C`, the cytotoxicity at 70.5 h is -10.7%.

For `c1ccc(OC[C@]23COC[C@H]2CN(Cc2ccoc2)C3)nc1`, the cytotoxicity at 70.5 h was -12.9%.

Take `c1ccc(Cn2cc3c(n2)C(CNCc2ccco2)OCC3)nc1` (configuration not stated): the cytotoxicity at 70.5 h was -0.917%.

On to `COCc1cncc2c1CCN(Cc1ccccn1)C2`, for which the cytotoxicity at 70.5 h is -0.455%.

As to `c1ccc(CN2CCO[C@H]3[C@H](OCCN4CCCC4)CC[C@@H]32)nc1`, the cytotoxicity at 70.5 h was -7.8%.
